Measured values as given in PubChem BioAssay AID1963439 (Molecular Pharmacology Branch, DTP, NCI, 2024).
Where “and” joins values, the source holds several entries; their conditions need not be identical. Equal entries are not always repeated.

System: NCI-H196 complex spheroids with HUVEC/MSC, growth % T/C
Experiment: Anticancer human tumor NCI-H196 cell line growth inhibition [Asc];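 further: spheroids exposed to compound for 7 days before measurement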;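 on viability, T/C: 100% = DMSO vehicle control wells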
Details: for viability, T/C: stronger effect = lower value
Experimental: Multicellular complex tumor spheroid response to apoptosis pathway targeting inhibitors Alrizomadlin, Pelcitoclax, and Dasminapant in combination with a variety of drugs and investigational agents in selected tumor cell lines
The MDM2 inhibitor alrizomadlin, the Bcl-2/Bcl-xL inhibitor pelcitoclax, and the IAPs inhibitor dasminapant were evaluated both individually and in combination with standard of care and investigational anticancer small molecules within a complex spheroid model of solid tumors. . Complex spheroids include a stromal component modeled by human endothelial cells (HUVEC) and fibroblasts modeled by human mesenchymal stem cells (MSCs). The concentration ranges selected for each drug and investigational agent were based upon clinically achievable concentrations if the clinical Cmax of the agent was known.
Compounds. The drugs and investigational agents: alrizomadlin (APG-115; NSC831270), pelcitoclax (APG-1252; NSC835773), dasminapant (APG-1387;NSC834197), TAK-243 (NSC785004), copanlisib (NSC809693), olaparib (NSC753686), talazoparib (NSC767125), cobimetinib (NSC 768068), eltanexor (KPT-8602, NSC 794443), abemaciclib (NSC 768073), sotorasib (NSC818433), adagrasib (NSC 831453), MRTX-1133 (NSC 836407), Iadademestat (ORY1001, NSC 806812), and RMC-4630 (NSC839698), were obtained from the NCI Developmental Therapeutics Program Chemical Repository. The FDA-approved anticancer drug set is available from the Developmental Therapeutics Program at https://dtp.cancer.gov/organization/dscb/obtaining/available plates.htm. […] The stock solutions were prepared in dimethyl sulfoxide (DMSO, Sigma-Aldrich, St. Louis, MO, cat. D2650) at 800-fold the tested concentration and stored at -70 degrees C prior to their use. All drugs and investigational agents were tested over a range starting from a high concentration at or near the clinical Cmax and decreasing in half-log increments. If the clinical Cmax for an agent had not been determined, the highest concentration tested was 10 microM.
The patient-derived cancer (PDC) cell lines include five colon adenocarcinomas: 186277-243-T-J2-PDC, 616215-338-R-J1-PDC, 439559-082-T-J2-PDC, 463943-066-T-J2-PDC, and 519858-162-T-J1-PDC; three pancreatic carcinomas: 323965-272-R-J2-PDC, 521955-158-R6-J3-PDC, and 521955-158-R2-J5-PDC; two uterine sarcomas: 327498-152-R-J2-PDC and 993429-296-R-J1-PDC; two rhabdomyosarcomas: 755483-174-R-J1-PDC and 772245-204-R-J1-PDC; two soft tissue sarcomas: 126254-015-R-J1-PDC and 494315-158-R-J1-PDC; two malignant fibrous histiocytomas: 317291-083-R-J1-PDC and 596521-263-R-J1-PDC; two breast carcinomas: 171881-019-R-J1-PDC and 885512-296-R-J2-PDC; and one ovarian carcinoma: 6556581-035-R-J-PDC were obtained from the NCI PDMR, (https://pdmr.cancer.gov). The established cell lines HSSY-2 synovial sarcoma (RRID:CVCL 8719), SYO-1 synovial sarcoma (RRID:CVCL_7146), MPNST malignant peripheral neural sheath tumor were obtained from the Sloan Kettering Institute. The following established cell lines were purchased from the American Type Culture Collection (ATCC, Manassas, VA), Sor the received from the NCI repository:, PANC-1 pancreatic carcinoma (CRL-1469, RRID:CVCL_0480), OVCAR-5 ovarian carcinoma (RRID:CVCL_1628), OVCAR-8 ovarian carcinoma (RRID:CVCL_1629), , MCF-7 breast carcinoma (CRL-12584, RRID:CVCL_0031), MDA-MB-231 breast carcinoma (CRL-12532, RRID:CVCL_0062), NCI-H1876 small cell lung carcinoma (CRL-5902, RRID:CVCL_1503), NCI-H510A small cell lung carcinoma (HTB-184, RRID:CVCL_1565), NCI-H1417 (CRL-5869, RRID:CVCL_1469), and NCI-H196 small cell lung carcinoma (CRL-5823, RRID:CVCL_1509). Dr. Peter Houghton (Greehey Children's Cancer Research Institute, University of Texas Health Science Center, San Antonio, TX) provided Rh-18 rhabdomyosarcoma (RRID:CVCL_1659). Pooled donor human umbilical vein endothelial cells (HUVEC, Lonza, cat. CC-2519) and human mesenchymal stem cells (hMSC, Lonza, cat. PT-2501) were purchased from Lonza (Walkersville, MD).
Cell Culture. […]

| SMILES | viability, T/C (compound 0.0316 µM) | viability, T/C (compound 0.1 µM) | viability, T/C (compound 0.316 µM) | viability, T/C (compound 1 µM) | viability, T/C (compound 3.16 µM) | IC50 (curve of compound) | viability, T/C (compound 0.00316 µM) | viability, T/C (compound 0.01 µM) | also measured |
| --- | --- | --- | --- | --- | --- | --- | --- | --- | --- |
| C#Cc1c(F)ccc2cc(O)cc(-c3ncc4c(N5CC6CCC(C5)N6)nc(OCC56CCCN5CC(F)C6)nc4c3F)c12 (stereo unspecified) | 94.6% and 101% and 103% | 93.4% and 95.6% and 109% | 93.4% and 92.8% and 118% | 102% and 100% and 113% | 101% and 92.6% and 108% | > 10000 nM |  |  | viability, T/C (compound 10 µM): 105% and 92.6% and 104% |
| C=C(F)C(=O)N1CCN(c2nc(OCC3CCCN3C)nc3c2CCN(c2cccc4cccc(Cl)c24)C3)CC1CC#N (stereo unspecified) | 95.2% and 99.4% and 108% | 109% and 99.9% and 101% | 100% and 102% and 113% | 96.1% and 103% and 109% | 94.2% and 103% and 111% | > 10000 nM and 5950 nM |  |  |  |
| C=CC(=O)N1CCN(c2nc(=O)n(-c3c(C)ccnc3C(C)C)c3nc(-c4c(O)cccc4F)c(F)cc23)C(C)C1 (stereo unspecified) | 92% and 102% and 106% | 94.8% and 110% and 103% | 103% and 93.4% and 109% | 99.8% and 106% and 112% | 97.6% and 103% (2×) | > 10000 nM |  |  | viability, T/C (compound 10 µM): 95.1% and 114% and 91.3% |
| CCN1C(C(=O)NC23CCC(C(=O)O)(CC2)CC3)C(c2cccc(Cl)c2F)C2(C(=O)Nc3cc(Cl)ccc32)C12CCCCC2 (stereo unspecified) |  |  |  |  |  | > 3000 nM |  |  | viability, T/C (compound 0.00949 µM): 102% and 98.3%; viability, T/C (compound 0.03 µM): 102% [middle of 15 runs]; viability, T/C (compound 0.0949 µM): 106% [middle of 15 runs]; viability, T/C (compound 0.3 µM): 106% [middle of 15 runs]; viability, T/C (compound 0.949 µM): 113% [middle of 15 runs]; IC50 (compound alone, run of 09/27/2022): > 3000 nM |
| CCN1CCN(Cc2ccc(Nc3ncc(F)c(-c4cc(F)c5nc(C)n(C(C)C)c5c4)n3)nc2)CC1 | 112% and 95.9% and 98.3% | 103% and 110% and 106% | 108% and 113% and 112% | 120% and 116% and 119% |  | > 1000 nM | 106% and 104% and 96.7% | 107% and 101% and 105% |  |
| CNC(C)C(=O)NC1CN(S(=O)(=O)c2cccc(S(=O)(=O)N3CCC4CCC(C(=O)NC(c5ccccc5)c5ccccc5)N4C(=O)C(NC(=O)C(C)NC)C3)c2)CCC2CCC(C(=O)NC(c3ccccc3)c3ccccc3)N2C1=O (stereo unspecified) | 5.61% [middle of 14 runs] | 3.73% [middle of 14 runs] | 3.32% [middle of 13 runs] | 2.97% [middle of 14 runs] |  | < 3.16 nM | 38.2% and 43% | 7.09% [middle of 14 runs] | IC50 (compound alone, run of 10/03/2022): < 10 nM |
| COc1c(OCCCN2CCOCC2)ccc2c3n(c(=NC(=O)c4cnc(N)nc4)nc12)CCN3 | 94.1% and 100% and 108% | 77.4% and 86.4% and 90.1% | 67.9% and 69.6% and 69.5% | 56.8% and 50.8% and 51% |  | > 1000 nM | 96% and 93% and 109% | 91.4% and 90.6% and 101% |  |
| Cc1nc(N2CCC3(CC2)COC(C)C3N)c(CO)nc1Sc1ccnc(N)c1Cl (stereo unspecified) |  |  |  |  |  | 777 nM and 1550 nM and 1820 nM |  |  | viability, T/C (compound 0.00949 µM): 108% and 110% and 98.4%; viability, T/C (compound 0.03 µM): 142% and 106% and 101%; viability, T/C (compound 0.0949 µM): 106% and 99% and 102%; viability, T/C (compound 0.3 µM): 86.8% and 96.3% and 92.5%; viability, T/C (compound 0.949 µM): 43% and 63.5% and 67.1%; viability, T/C (compound 3 µM): 13.2% and 30.9% and 37.1% |
| Cn1ncnc1[C@H]1c2n[nH]c(=O)c3cc(F)cc(c23)N[C@@H]1c1ccc(F)cc1 | 100% (2×) and 96.9% | 98.8% and 96% and 88.3% |  |  |  | > 100 nM | 99.5% and 100% and 104% | 104% and 102% and 98% | viability, T/C (compound 0.000316 µM): 97.9% and 107% and 106%; viability, T/C (compound 0.001 µM): 104% and 97.1% and 99.2% |
| NC(=O)C(=Cn1cnc(-c2cc(C(F)(F)F)cc(C(F)(F)F)c2)n1)c1cncnc1 |  |  |  |  |  | 25.1 nM and 23.9 nM and 13.1 nM |  |  | viability, T/C (compound 0.000949 µM): 112% and 103% and 99.9%; viability, T/C (compound 0.003 µM): 101% and 99.4% and 88.3%; viability, T/C (compound 0.00949 µM): 79% and 71.1% and 58.7%; viability, T/C (compound 0.03 µM): 48.9% and 49.5% and 27.4%; viability, T/C (compound 0.0949 µM): 9.22% and 11.1% and 7.62%; viability, T/C (compound 0.3 µM): 6.01% and 7.26% and 5.35% |
| NC1CCC(NC2CC2c2ccccc2)CC1 (stereo unspecified) | 99.4% and 105% and 114% | 92.6% and 112% and 92.1% |  |  |  | > 100 nM | 108% (2×) and 97.2% | 93% and 98.4% and 103% | viability, T/C (compound 0.000316 µM): 103% and 108% and 100%; viability, T/C (compound 0.001 µM): 93.8% and 106% and 108% |
| O=C(c1cc(Cc2n[nH]c(=O)c3ccccc23)ccc1F)N1CCN(C(=O)C2CC2)CC1 | 94% and 96.9% | 96.5% and 113% | 101% and 94.4% | 99.6% and 101% | 96.3% and 102% | > 10000 nM |  |  | viability, T/C (compound 10 µM): 97.1% and 97.2% |
| O=C(c1ccc(F)c(F)c1Nc1ccc(I)cc1F)N1CC(O)([C@@H]2CCCCN2)C1 | 98.1% and 97.8% and 122% | 116% and 111% and 136% | 132% and 119% and 145% | 126% and 119% and 145% |  | > 1000 nM | 94.1% and 97.7% and 117% | 116% and 99.4% and 109% |  |
